# Source: US7737180B2, “Use of neboglamine (CR 2249) as an antipsychotic and neuroprotective” (Rottapharm S.p.A., priority 2004, dated 2010)
# Marks after values point to notes of the source that are not given here.
# Assays:
# [1] = tested on: hippocampal ischaemia by bilateral occlusion of the carotid arteries; experiment: Ischaemia induced in the gerbil by bilateral occlusion of the carotid arteries (hippocampal neuroprotection); assay type: in vivo; conditions: for area (mm2): mean ± SD; for % mortality: ischaemia group 28.57
# Protocol: It was accordingly decided to investigate the possible neuroprotective effects of neboglamine and CR 2863 on a model of hippocampal ischaemia brought about in the gerbil by bilateral occlusion of the carotid arteries.
# In brief, halothane-anaesthetised animals are subjected to bilateral occlusion of the carotid arteries for 5 minutes. After 7 days, the animals are sacrificed, the brain is removed, deep frozen and 10 μm sections from the hippocampal area are prepared which are stained with cresyl violet. A quantitative determination (in mm^2) of the area occupied by […] pyramidal neurons is then performed by means of an image analyser. The type of hippocampal neurodegeneration arising from this model of ischaemia involves a significant reduction in the area of the neuronal nuclei. The drugs were administered intraperitoneally (i.p.) 1 h before the ischaemia.
# [2] = tested on: PCP-induced inhibition of the acoustic prestimulus (PPI); experiment: Reversion of PCP-induced inhibition of the acoustic prestimulus (PPI) in the rat; assay type: in vivo
# From the text: The first model used was the study of PCP-induced inhibition of the acoustic prestimulus (PPI) in the rat.
# This phenomenon is known as “pre-pulse inhibition” (PPI). […] Such a deficit may be reproduced experimentally with drugs which induce psychotic phenomena, such dopamine agonists and NMDA antagonists.
# The method is based on that reported by Swerdlow et al. [J. Pharmacol. Exp. Ther. 256 530-536 (1991)] with slight modifications. An acrylic cylinder is used which is equipped with a piezoelectric sensor mounted under the cylinder which detects and transduces movements of the cylinder. A background noise of 60 dB is provided and subsequently two acoustic stimuli separated by 500 ms, the first of which is 20 dB above the background noise, while the second (startle stimulus) is 120 dB for a duration of 40 ms. The session of 30 trials at 30 second intervals with an overall duration of approx. 15 minutes involved subjecting the animal randomly to a startle stimulus either isolated or preceded by the low intensity stimulus. PPI was calculated as a percentage reduction in the level of startle in the presence of the prestimulus compared to that without the acoustic prestimulus. Rats weighing approx. 250 g were used, which were treated intraperitoneally (i.p.) with the products under investigation 15 minutes prior to subcutaneous (s.c.) administration of 3 mg/kg of PCP and 30 minutes before the beginning of the experiment.
# [3] = tested on: NMDA-evoked 3H-dopamine release in slices of rat prefrontal cortex; experiment: PCP-induced blocking of NMDA-evoked 3H-dopamine release in slices of rat frontal cortex; assay type: cell-based
# Protocol: Neboglamine's ability to reverse the effect of PCP at a neuronal level was also evaluated in an in vitro test carried out on slices of rat frontal cortex.
# The method involved preparing 0.4 mm thick cortical slices, incubating them for 20 minutes with ^3H-dopamine in physiological solution in the presence of 0.1 μM 6-nitroquipazine and 0.1 μM nisoxetine (selective serotonin and noradrenaline reuptake inhibitors), aerated with 95% O2+5% CO2 at 37° C., which, after appropriate washing with artificial cerebrospinal fluid (aCSF), were superperfused for 30 minutes with aCFS at a rate of 1 ml/minute to equilibrate the system. Then, PCP and neboglamine were added at the stated concentrations to the perfusion liquid for the entire duration of the experiment, while, after 45 minutes, NMDA (100 μM) stimulation was provided for 5 minutes. Another four 5 minute fractions of eluate were then collected and their radioactivity determined.
# The effect of the drugs was evaluated by calculating the ratio between the percentage radioactivity present in the effluent fraction corresponding to the maximum effect and that in the first effluent fraction collected.
# [4] = tested on: PCP-induced depression (swimming test); experiment: Reversion of PCP-induced depression in the mouse swimming test; assay type: in vivo
# From the text: An animal model of depression (which may be considered as a negative symptom of schizophrenia) was then used to study the activity of neboglamine on the PCP-induced depressive effects in the mouse using the swimming test according to Porsolt et al. [Arch. Int. Pharmadyn. 229, 327-336 (1977)].
# The test involves inducing a state of depression in the animal, which is forced to swim in a glass cylinder from which it cannot escape. The state of depression was accentuated by 14 days' pre-treatment with a daily 10 mg/kg (s.c.) injection of PCP. On the 15th day, the animals were additionally pretreated (i.p.) with physiological solution or neboglamine 30 minutes before the beginning of the test. The duration of immobility (sign of depression) in seconds was evaluated during the experiment of an overall duration of 360 seconds. The results obtained in this manner, calculated between the 3rd and 6th minute of the experiment, i.e. for a period of […], are shown in Table 2.
smiles,measurement,setting,value
"CC1(C)CCC(N)CC1 [CR 2863, 4,4-dimethylcyclohexylamine]",% protection,[1]; 4 mg/kg i.p.,24.88%
same,area (mm2),"[1]; 4 mg/kg i.p. 1 h before ischaemia, sham 22.39, ischaemia 5.55",9.74 ± 0.9*^+ mm2
same,% mortality,[1]; 4 mg/kg i.p.,11.11%
same,% protection,[1]; 8 mg/kg i.p.,39.25%
same,area (mm2),[1]; 8 mg/kg i.p. 1 h before ischaemia,12.16 ± 5.49 mm2
same,% mortality,[1]; 8 mg/kg i.p.,5.88%
same,% protection,[1]; 16 mg/kg i.p.,57.82%
same,area (mm2),[1]; 16 mg/kg i.p. 1 h before ischaemia,15.23 ± 5.49*^+ mm2
same,times less active than the parent (neboglamine),[2]; rat PPI model,approx. 3 times
same,PPI (% inhibition),"[2]; rat, drug 10 mg/kg i.p. 15 min before PCP 3 mg/kg s.c., n=10",38* %
same,% inhibition by PCP,"[2]; rat, drug 10 mg/kg i.p. + PCP, calculated by formula",51.4%
CN[C@H](CC(=O)O)C(=O)O [NMDA],% increase in NMDA-evoked 3H-dopamine release,[3]; Control: NMDA 100 μM alone,120%
"c1ccc(C2(N3CCCCC3)CCCCC2)cc1 [PCP, Phenylcyclidine]",PPI (% inhibition),"[2]; rat, PCP only group, 3 mg/kg s.c., control 55%",20%
same,% increase in NMDA-evoked 3H-dopamine release,[3]; NMDA 100 μM + PCP 0.1 μM,64%
same,increase of duration of immobility relative to untreated control group,[4]; 2 weeks' chronic PCP,approx. 3 times
same,Immobility,"[4]; PCP only group, 14 days 10 mg/kg s.c. daily, control 48",130 s
